The results in this text go back to PMC9821108, “Biochemical and Structural Analyses Shed Light on the Mechanisms of RadD DNA Binding and Its ATPase from Escherichia coli” (International Journal of Molecular Sciences, 2023).

Data set [1] addresses T1, RadD (Escherichia coli, UniProt P33919).
T1 construct: recombinant RadD from RadD-pET-28a / RadD-pGEX-6p-1 plasmids expressed in E. coli; full-length with RD1, RD2, ZFD, CTD
T1 sequence (P33919 1-586): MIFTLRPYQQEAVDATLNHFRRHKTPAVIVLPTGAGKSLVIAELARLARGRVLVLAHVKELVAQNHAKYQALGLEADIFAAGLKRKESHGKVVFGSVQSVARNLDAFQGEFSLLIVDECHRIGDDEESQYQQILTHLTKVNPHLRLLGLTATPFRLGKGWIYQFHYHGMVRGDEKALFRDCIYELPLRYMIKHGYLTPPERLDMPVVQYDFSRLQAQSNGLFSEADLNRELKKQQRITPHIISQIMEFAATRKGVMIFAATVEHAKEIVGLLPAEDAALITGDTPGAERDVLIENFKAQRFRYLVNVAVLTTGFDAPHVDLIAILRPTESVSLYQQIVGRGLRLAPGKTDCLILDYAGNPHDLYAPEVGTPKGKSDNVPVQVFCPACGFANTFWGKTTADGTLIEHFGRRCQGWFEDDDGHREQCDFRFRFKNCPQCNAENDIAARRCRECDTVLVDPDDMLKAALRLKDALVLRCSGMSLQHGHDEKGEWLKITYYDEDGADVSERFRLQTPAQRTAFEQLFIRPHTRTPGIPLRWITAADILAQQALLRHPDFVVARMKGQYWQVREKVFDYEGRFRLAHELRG
As to the kind of experiment: X-ray crystal structure, […] Å. Type of data set: binding. To be noted: co-crystallised with 5 mM ATP and 5 mM MgCl2, ATP hydrolysed to ADP in the crystal; site between RD1 and RD2.

In data set [2] the target is T2, RadD (Escherichia coli, UniProt P33919, G34E).
T2 construct: recombinant RadD from RadD-pET-28a / RadD-pGEX-6p-1 plasmids expressed in E. coli; full-length with RD1, RD2, ZFD, CTD
T2 sequence (P33919 whole entry G34E): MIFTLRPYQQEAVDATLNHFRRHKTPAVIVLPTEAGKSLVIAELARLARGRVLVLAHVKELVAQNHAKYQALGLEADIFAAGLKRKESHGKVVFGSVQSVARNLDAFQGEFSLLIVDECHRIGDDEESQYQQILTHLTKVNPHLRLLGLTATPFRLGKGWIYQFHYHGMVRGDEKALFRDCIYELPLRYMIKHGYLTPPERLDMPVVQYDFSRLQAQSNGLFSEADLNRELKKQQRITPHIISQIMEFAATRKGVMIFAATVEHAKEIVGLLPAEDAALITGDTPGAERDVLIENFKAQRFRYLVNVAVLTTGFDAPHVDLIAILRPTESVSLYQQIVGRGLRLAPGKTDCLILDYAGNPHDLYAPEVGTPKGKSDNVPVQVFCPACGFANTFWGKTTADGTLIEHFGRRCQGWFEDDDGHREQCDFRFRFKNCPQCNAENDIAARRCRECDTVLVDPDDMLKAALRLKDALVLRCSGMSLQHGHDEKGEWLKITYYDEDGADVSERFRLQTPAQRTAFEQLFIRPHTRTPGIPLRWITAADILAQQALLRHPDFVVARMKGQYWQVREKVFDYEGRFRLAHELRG
As to the kind of experiment: malachite green phosphate release ATPase assay. Format: biochemical. To be noted: 0.375 μM enzyme, 1 mM ATP; buffer as above.

For data set [3], the target named is T3, RadD (Escherichia coli, UniProt P33919, R343A).
T3 construct: recombinant RadD from RadD-pET-28a / RadD-pGEX-6p-1 plasmids expressed in E. coli; full-length with RD1, RD2, ZFD, CTD
T3 sequence (P33919 whole entry R343A): as the sequence (P33919 whole entry G34E) above, with E34G, R343A counted along it
As to the kind of experiment: malachite green phosphate release ATPase assay. Format: biochemical. As to conditions: 0.375 μM enzyme, 1 mM ATP; buffer as above.

In data set [4] the target is T4, RadD (Escherichia coli, UniProt P33919, D117R).
T4 construct: recombinant RadD from RadD-pET-28a / RadD-pGEX-6p-1 plasmids expressed in E. coli; full-length with RD1, RD2, ZFD, CTD
T4 sequence (P33919 whole entry D117R): as the sequence (P33919 whole entry G34E) above, with E34G, D117R counted along it
As to the kind of experiment: malachite green phosphate release ATPase assay. Format: biochemical. As to conditions: 0.375 μM enzyme, 1 mM ATP; buffer as above.

Data set [5] addresses T5, RadD (Escherichia coli, UniProt P33919, R6A).
T5 construct: recombinant RadD from RadD-pET-28a / RadD-pGEX-6p-1 plasmids expressed in E. coli; full-length with RD1, RD2, ZFD, CTD
As to the kind of experiment: malachite green phosphate release ATPase assay. Format: biochemical. As to conditions: 0.375 μM enzyme, 1 mM ATP; buffer as above.

Data set [6] deals with T6, RadD (Escherichia coli, UniProt P33919, G36E).
T6 construct: recombinant RadD from RadD-pET-28a / RadD-pGEX-6p-1 plasmids expressed in E. coli; full-length with RD1, RD2, ZFD, CTD
T6 sequence (P33919 whole entry G36E): as the sequence (P33919 whole entry G34E) above, with E34G, G36E counted along it
In words: malachite green phosphate release ATPase assay. Format: biochemical. To be noted: 0.375 μM enzyme, 1 mM ATP; buffer as above.

Data set [7] deals with T7, RadD (Escherichia coli, UniProt P33919, K68A).
T7 construct: recombinant RadD from RadD-pET-28a / RadD-pGEX-6p-1 plasmids expressed in E. coli; full-length with RD1, RD2, ZFD, CTD
T7 sequence (P33919 whole entry K68A): as the sequence (P33919 whole entry G34E) above, with E34G, K68A counted along it
As to the kind of experiment: malachite green phosphate release ATPase assay. Format: biochemical. As to conditions: 0.375 μM enzyme, 1 mM ATP; buffer as above.

For data set [8], the target named is T8, RadD (Escherichia coli, UniProt P33919, K37A).
T8 construct: recombinant RadD from RadD-pET-28a / RadD-pGEX-6p-1 plasmids expressed in E. coli; full-length with RD1, RD2, ZFD, CTD
T8 sequence (P33919 whole entry K37A): as the sequence (P33919 whole entry G34E) above, with E34G, K37A counted along it
In words: malachite green phosphate release ATPase assay. As to conditions: 0.375 μM enzyme, 1 mM ATP; buffer as above. Type of data set: biochemical.

The target in data set [9] is RadD ZFD (Escherichia coli) (UniProt P33919). As to the kind of experiment: EMSA. To be noted: 20 mM Bis-Tris pH 6.5, 50 mM NaCl, 15% glycerol, 10 mM beta-mercaptoethanol, 37 C 30 min, 33 nM HJ, 0-20 uM RadD; 8% native PAGE in 0.5x TBE; text says …. (A gel shift assay detects complexes by their altered migration in electrophoresis.)
For data set [10], the target named is RadD CTD (Escherichia coli) (UniProt P33919). In words: EMSA. To be noted: 20 mM Bis-Tris pH 6.5, 50 mM NaCl, 15% glycerol, 10 mM beta-mercaptoethanol, 37 C 30 min, 33 nM HJ, 0-20 uM RadD; 8% native PAGE in 0.5x TBE; text says ….
The target of data set [11] is T1, RadD. As to the kind of experiment: X-ray crystal structure, […] Å. Type of data set: binding. As to conditions: co-crystallised with 5 mM ATPγS, no Mg added; site between RD1 and RD2.
Substrate in data set [12]: Nc1ncnc2c1ncn2[C@@H]1O[C@H](COP(=O)(O)OP(=O)(O)OP(=O)(O)O)[C@@H](O)[C@H]1O
As to the kind of experiment: malachite green phosphate release ATPase assay. Format: biochemical, Escherichia coli. As to conditions: 0.4 μM RadD, 20 mM Hepes pH 7.5, 150 mM NaCl, 3 mM MgCl2, 20 °C, 30 min, no DNA or SSB.

T5 sequence (P33919 whole entry R6A): as the sequence (P33919 whole entry G34E) above, with R6A, E34G counted along it

In the case of `Nc1ncnc2c1ncn2[C@@H]1O[C@H](COP(=O)(O)OP(=O)(O)O)[C@@H](O)[C@H]1O` [ADP], the “X-ray crystal structure, 2.7 Å” value at RadD [1] was “RadD/ADP PDB: 8H5Y”.

Consider `Nc1ncnc2c1ncn2[C@@H]1O[C@H](COP(=O)(O)OP(=O)(O)OP(=O)(O)O)[C@@H](O)[C@H]1O` [ATP], for which the ATPase activity result at RadD [2] was “mutant G34E, G36E, K37A, D117R, and R343A lost their ATPase activity”; on RadD [3], “mutant G34E, G36E, K37A, D117R, and R343A lost their ATPase activity”; at RadD [4], “mutant G34E, G36E, K37A, D117R, and R343A lost their ATPase activity”; on RadD [5], “mutants R6A and N9A were not significantly different from the wild-type”; on RadD [6], “mutant G34E, G36E, K37A, D117R, and R343A lost their ATPase activity”; on RadD [7], “The ATPase activity of mutant K68A is three times that of the wild-type”. For the same molecule, the ATPase activity entry on RadD [8] was “mutant G34E, G36E, K37A, D117R, and R343A lost their ATPase activity”.

With “CCGCTACCAGTGATCACCAATGGATTGCTAGGACATCTTTGCCCACCTGCAGGTTCACCC / TGGGTGAACCTGCAGGTGGGCAAAGATGTCCTAGCAATCCATTGTCTATGACGTCAAGCTC / GAGCTTGACGTCATAGACAATGGATTGCTAGGACATCTTTGCCGTCTTGTCAATATCGGC / TGCCGATATTGACAAGACGGCAAAGATGTCCTAGCAATCCATTGGTGATCACTGGTAGCGG [Holliday junction (HJ)]”, the figures for the binding signal in data set [9] and in [10] were 43 % of WT and 47 % of WT, respectively.

In the case of `Nc1ncnc2c1ncn2[C@@H]1O[C@H](COP(=O)(O)OP(=O)(O)OP(O)(O)=S)[C@@H](O)[C@H]1O` [ATPγS], at RadD [11], the “X-ray crystal structure, 3.0 Å” value was “RadD/ATPγS PDB: 8H5Z”.

B1: RadD (Escherichia coli K-12) (protein)
chain: T1 sequence (P33919 1-586)
notes: recombinant RadD from RadD-pET-28a / RadD-pGEX-6p-1 plasmids expressed in E. coli; full-length with RD1, RD2, ZFD, CTD
Broadly, the Km is the substrate concentration at which the rate is half of its maximum. Turning to B1, in data set [12], the Km turned out to be 3.48 mM.
